From ChEMBL document CHEMBL5375951, “Beware the Receptor Variants” (J Med Chem, 2023) come the findings set out here.

Experiment [1] can be described thus: Agonist activity at MRGPRX4 83S expressed in human HEK293 cells co- expressing Gq assessed as change in intracellular calcium level by calcium mobilization assay. The class given is cell-based. On the technique in general: Calcium assays in cells follow changes in intracellular calcium, usually with a dye or a luminescent sensor.
Experiment [2] can be described thus: Agonist activity at MRGPRX4 83L expressed in human HEK293 cells co- expressing Gq assessed as change in intracellular calcium level by calcium mobilization assay. The class given is cell-based.

Structures are written as SMILES. pEC50: −log10 of the molar value.

Usually pEC50 stands for the EC50 on a negative log10 scale, so that one unit is a factor of ten.

For the compound `COc1cccc(CCc2nc3c([nH]2)c(=O)n(CC#N)c(=O)n3CCCCP(=O)(O)O)c1`, the values for the pEC50 in experiment [1] and in experiment [2] were 7.95 and 6.36, respectively.

In the case of `CC12CC3CC(C)(C1)CC(C(=O)N[C@H](Cc1ccccc1)C(=O)O)(C3)C2`, the pEC50 in experiment [1] was 4.88; in experiment [2], 8.18.

In the case of `C[C@H](CCC(=O)O)[C@H]1CC[C@H]2[C@@H]3CC[C@@H]4C[C@H](O)CC[C@]4(C)[C@H]3C[C@H](O)[C@]12C` [DEOXYCHOLIC ACID], the pEC50 in experiment [1] was 4.77.

`CC(C)[C@H]1CC[C@H](C(=O)N[C@H](Cc2ccccc2)C(=O)O)CC1` [NATEGLINIDE]: the pEC50 in experiment [1] is less than 5.00.

Regarding `C[C@H](CCC(=O)NCCS(=O)(=O)O)[C@H]1CC[C@H]2[C@@H]3CC[C@@H]4C[C@H](O)CC[C@]4(C)[C@H]3C[C@H](O)[C@]12C` [TAURODEOXYCHOLIC ACID], the pEC50 in experiment [1] and in experiment [2] was less than 5.00 in each case.
